Reference: publication PMC12030043, “Preparation and Therapeutic Evaluation of Engineered Semaglutide and Statin–Lipid Conjugate-Based Nanoparticle” (Pharmaceutics, 2025)

Experiments:
[1] = system: high-fat diet (HFD)-fed mouse model; assay: Histopathology (H&E and oil red O staining) of liver and adipose tissue in HFD-fed mice; type: in vivo, C57BL/6 mice; conditions: for lipid staining and fat droplet accumulation in liver tissue (in words): H&E and ORO staining; for lipid staining and fat droplet accumulation in liver tissue (in words) / quantification of ORO staining: RO 0.5, RLC 1, SRLC NPs 1.1 mg/kg s.c.; for diameter of the adipocyte in sWAT: HFD group 60.32 ± 6.95 µm; for diameter of the adipocyte in sWAT / diameter of the adipocyte in eWAT: n = 7; for diameter of the adipocyte in eWAT: HFD group 64.12 ± 12.51 µm; for area of the adipocyte in sWAT: HFD group 78.86 ± 1.38%; for quantification of ORO staining: liver tissue, HFD group = 100.00 ± 15.00%
Procedure: All animal experiments were conducted under the standard regulations of the Institutional Animal Care and Use Committee (IACUC) at Konkuk University (ref. no. KU22078-1). The animals were housed in a controlled environment with regulated temperature and humidity, maintained under a 12 h light–dark cycle. Obesity was induced in 5-week-old male C57BL/6 mice through dietary control for 69 days. A total of 25 mice were used and divided into five experimental groups: negative control (regular diet, RD), positive control (high-fat diet, HFD), RO (0.5 mg/kg), RLC (1 mg/kg), and SRLC NPs (1.1 mg/kg). The RO dose was set at half that of RLC due to its molecular weight being approximately twice that of RLC, ensuring equivalent molar exposure. Additionally, the SRLC NP dose was adjusted to 1.1 mg/kg as it comprised 1 mg of RLC and 0.1 mg of semaglutide, allowing for the accurate comparison of therapeutic effects. While the RD group received a normal diet, the other groups were fed a high-fat diet (HFD) consisting of 60 kcal% fat (D12492, Research Diets, New Brunswick, NJ, USA). The body weights of the mice were measured weekly. Starting from day 28 of the dietary intervention, each group received their respective substances via subcutaneous injection every three days. Five days before the end of the experiment, an oral glucose tolerance test (OGTT) was conducted to assess glucose sensitivity. After 19 h of fasting, all experimental groups were administered a glucose solution orally (2 g/kg). Blood glucose levels were then measured at time intervals of 0, 15, 30, 60, 90, 120, and 180 min (n = 3). Blood glucose levels were assessed using a glucometer (G CARE, GC Medical Science, Yongin, Republic of Korea). On the final day of the experiment, after 14 h of fasting, the mice were anesthetized via intraperitoneal administration of 2,2,2-tribromoethanol (TBE), and blood samples were collected. Hepatotoxicity and lipid profiling analyses were conducted using the collected blood samples, while liver tissues were subjected to hematoxylin and eosin (H&E) and oil red O (ORO) staining for further evaluation. All analyses were performed by KP&T Technology (Cheongju, Republic of Korea).
Representative images of mice from the HFD group and the SRLC NPs-treated group on the final day of the experiment are shown in Figure 9A. To evaluate the pathological changes at the tissue level and the therapeutic effects of SRLC NPs, hematoxylin and eosin (H&E) staining and oil red O (ORO) staining were performed (Figure 9B). These staining analyses were conducted to confirm the reduction in hepatic fat accumulation and assess adipose tissue remodeling following SRLC NPs treatment. […] The area of the adipocyte in sWAT (n = 4) was as follows: HFD, 78.86 ± 1.38%; RO, 77.51 ± 2.52%; RLC, 72.72 ± 2.75%; and SRLC NPs, 47.45 ± 1.03% (Figure 9E). The diameter of the adipocyte in eWAT (n = 7) was the following: HFD, 64.12 ± 12.51 µm; RO, 59.53 ± 6.42 µm; RLC, 57.01 ± 7.04 µm; and SRLC NPs, 33.79 ± 3.62 µm (Figure 9F). The area of the adipocyte in eWAT (n = 4) was as follows: HFD, 76.44 ± 1.91%; RO, 79.30 ± 1.91%; RLC, 79.223 ± 1.53%; and SRLC NPs, 63.28 ± 2.94% (Figure 9G).

[2] = system: high-fat diet (HFD)-fed mouse model; assay: Anti-obesity effect (body weight) in high-fat diet (HFD)-fed mouse model; type: in vivo; conditions: HFD-fed C57BL/6 mice, day 69, s.c. every three days from day 28; RO 0.5 mg/kg, SRLC NPs 1.1 mg/kg; mean ± S.D., n = 5
Procedure: (§1) All animal experiments were conducted under the standard regulations of the Institutional Animal Care and Use Committee (IACUC) at Konkuk University (ref. no. KU22078-1). The animals were housed in a controlled environment with regulated temperature and humidity, maintained under a 12 h light–dark cycle. Obesity was induced in 5-week-old male C57BL/6 mice through dietary control for 69 days. A total of 25 mice were used and divided into five experimental groups: negative control (regular diet, RD), positive control (high-fat diet, HFD), RO (0.5 mg/kg), RLC (1 mg/kg), and SRLC NPs (1.1 mg/kg). The RO dose was set at half that of RLC due to its molecular weight being approximately twice that of RLC, ensuring equivalent molar exposure. Additionally, the SRLC NP dose was adjusted to 1.1 mg/kg as it comprised 1 mg of RLC and 0.1 mg of semaglutide, allowing for the accurate comparison of therapeutic effects. While the RD group received a normal diet, the other groups were fed a high-fat diet (HFD) consisting of 60 kcal% fat (D12492, Research Diets, New Brunswick, NJ, USA). The body weights of the mice were measured weekly. Starting from day 28 of the dietary intervention, each group received their respective substances via subcutaneous injection every three days. […] Blood glucose levels were then measured at time intervals of 0, 15, 30, 60, 90, 120, and 180 min (n = 3).

[3] = system: high-fat diet (HFD)-fed mouse model; assay: Oral glucose tolerance test (OGTT) in HFD-fed mice; type: in vivo, C57BL/6 mice; conditions: day 64, 19 h fasting, oral glucose 2 g/kg, 0-180 min, glucometer, n = 3; RO 0.5 mg/kg, RLC 1 mg/kg, SRLC NPs 1.1 mg/kg s.c.
Procedure: as §1

[4] = Zeta potential measurement; type: physicochemical; conditions: Zetasizer Nano; RLC alone and semaglutide–RLC (1:10) formulation; mean ± S.D.
Procedure: (§2) To determine the optimal formulation and final composition of the semaglutide–RLC nanoparticles (SRLC NPs), a precipitation evaluation experiment was conducted using various mass ratios (1:10, 1:20, 1:30, w/w) of semaglutide to RLC. Based on stability and particle size analysis, the 1:10 ratio was selected as the optimal formulation, and this ratio was maintained in the final product composition to ensure consistency in therapeutic efficacy and physicochemical properties. The resulting mixture was used immediately without undergoing a separate freeze-drying process. For nanoparticle preparation, semaglutide ([…]) was dissolved in 1 mL of DW, while RLC ([…]) was dissolved in 1 mL of DMSO. […] The stability of each formulation was assessed by measuring particle size at multiple time points (0, 0.5, 1, 2, 3, 4, and 5 days) using dynamic light scattering (DLS; Zetasizer Nano, Malvern Instruments, Worcestershire, UK). The zeta potential of both RLC alone and the semaglutide–RLC (1:10) formulation was also measured to evaluate the surface charge and colloidal stability of the nanoparticles. Additionally, in vivo stability was evaluated by preparing 1 mL of Dulbecco’s phosphate-buffered saline (DPBS) containing 10% fetal bovine serum (FBS) and 5% DMSO, followed by particle size measurements at different time points (0, 0.5, 1, and 2 days). […]

fibroblast cells = assay: Cytotoxicity assay in fibroblast cells (EZ-Cytox); type: cell-based; conditions: 100 µg/mL, 24 h, absorbance 450 nm/600 nm, relative to untreated control, mean ± S.D., n = 5
Procedure: The cytotoxicity of the RLC and SRLC nanoparticles was evaluated using fibroblast cells obtained from the Korean Cell Line Bank (Seoul, Republic of Korea). The fibroblast cells were cultured in high-glucose Dulbecco’s modified Eagle’s medium (DMEM) supplemented with 10% (v/v) fetal bovine serum (FBS) and 1% antibiotic–antimycotic solution. The cells were then seeded into a 96-well culture plate at a density of 1.0 × 10^4 cells per well and incubated for 1 h at 37 °C in a humidified atmosphere containing 5% CO2 to allow stabilization. Following stabilization, the cells were treated with RLC and SRLC nanoparticles at concentrations ranging from 0.1 to 100 […] for 24 h. Cell viability (n = 5) was evaluated using the EZ-Cytox cell viability assay kit, with absorbance readings taken at 450 nm and 600 nm using a microplate reader (SPECTROstar Nano, BMG LABTECH, Ortenberg, Germany). The viability of the treated cells was determined by comparing the UV absorbance values of the samples to those of the untreated control group.
To evaluate the cytotoxic effects of SRLC NPs, a cytotoxicity assay was performed using fibroblast cells at concentrations ranging from 0.1 to 100 µg/mL (Figure 6A).

[5] = Particle size by dynamic light scattering (DLS) in aqueous solution; type: physicochemical; conditions: 1 mL distilled water containing 5% DMSO, semaglutide fixed at 0.1 mg, semaglutide alone 0.1 mg/mL, RLC alone 1 mg/mL, mean ± S.D., n = 3
Procedure: as §2

[6] = conventional semaglutide formulations; ref [11],[12]; cited from earlier work
Text: Obesity and non-alcoholic fatty liver disease (NAFLD) have emerged as critical health concerns in modern society, closely linked to diabetes, cardiovascular diseases, and metabolic syndrome. As one of the most rapidly increasing metabolic disorders worldwide, there is a continuous demand for the development of effective therapeutic agents and treatment strategies.

CC(C)c1nc(N(C)S(C)(=O)=O)nc(-c2ccc(F)cc2)c1/C=C/[C@@H](O)C[C@@H](O)CC(=O)O [RO, Rosuvastatin calcium]
lipid staining and fat droplet accumulation in liver tissue (in words) [1]: abnormal fat droplet accumulation | diameter of the adipocyte in sWAT ([1]; H&E, mean ± S.D.): 51.20 ± 8.99 µm | diameter of the adipocyte in eWAT ([1]; H&E, mean ± S.D.): 59.53 ± 6.42 µm | area of the adipocyte in eWAT ([1]; H&E, HFD group 76.44 ± 1.91%, mean ± S.D., n = 4): 79.30 ± 1.91% | area of the adipocyte in sWAT ([1]; H&E, mean ± S.D., n = 4): 77.51 ± 2.52% | quantification of ORO staining ([1]; mean ± S.D., n = 4): 70.50 ± 8.02% | body weight at the end of the experiment [2]: 36.20 ± 2.34 g | blood glucose response in OGTT (in words) [3]: sharp increase in blood glucose levels immediately after administration, followed by a gradual decline

CC(C)c1nc(N(C)S(C)(=O)=O)nc(-c2ccc(F)cc2)c1C=CC(O)CC(O)CC(=O)NCCNC(=O)CCC(C)C1CCC2C3C(O)CC4CC(O)CCC4(C)C3CCC12C (stereo not drawn) [RLC]
lipid staining and fat droplet accumulation in liver tissue (in words) [1]: abnormal fat droplet accumulation | diameter of the adipocyte in sWAT ([1]; H&E, mean ± S.D.): 49.79 ± 7.09 µm | diameter of the adipocyte in eWAT ([1]; H&E, mean ± S.D.): 57.01 ± 7.04 µm | area of the adipocyte in sWAT ([1]; H&E, mean ± S.D., n = 4): 72.72 ± 2.75% | quantification of ORO staining ([1]; mean ± S.D., n = 4): 49.50 ± 9.53% | zeta potential [4]: −22.08 ± 0.48 mV | blood glucose response in OGTT (in words) [3]: sharp increase in blood glucose levels immediately after administration, followed by a gradual decline | cell viability (fibroblast cells): 85.60 ± 2.87% | particle size [5]: 613.30 ± 26.86 nm

CC[C@H](C)[C@H](NC(=O)[C@H](Cc1ccccc1)NC(=O)[C@H](CCC(=O)O)NC(=O)[C@H](CCCCNC(=O)COCCOCCNC(=O)COCCOCCNC(=O)CC[C@H](NC(=O)CCCCCCCCCCCCCCCCC(=O)O)C(=O)O)NC(=O)[C@H](C)NC(=O)[C@H](C)NC(=O)[C@H](CCC(N)=O)NC(=O)CNC(=O)[C@H](CCC(=O)O)NC(=O)[C@H](CC(C)C)NC(=O)[C@H](Cc1ccc(O)cc1)NC(=O)[C@H](CO)NC(=O)[C@H](CO)NC(=O)[C@@H](NC(=O)[C@H](CC(=O)O)NC(=O)[C@H](CO)NC(=O)[C@@H](NC(=O)[C@H](Cc1ccccc1)NC(=O)[C@@H](NC(=O)CNC(=O)[C@H](CCC(=O)O)NC(=O)C(C)(C)NC(=O)[C@@H](N)Cc1cnc[nH]1)[C@@H](C)O)[C@@H](C)O)C(C)C)C(=O)N[C@@H](C)C(=O)N[C@@H](Cc1c[nH]c2ccccc12)C(=O)N[C@@H](CC(C)C)C(=O)N[C@H](C(=O)N[C@@H](CCCNC(=N)N)C(=O)NCC(=O)N[C@@H](CCCNC(=N)N)C(=O)NCC(=O)O)C(C)C [semaglutide]
oral bioavailability [6]: ~ 1%
